For one data set, the target named is FXa (Homo sapiens, UniProt P00742). In words: Factor Xa inhibition (FXa-IC50). Format: biochemical. The source says:
The inhibition of factor Xa by the compounds according to the invention and the measurement of the anticoagulant and antithrombotic activity can be determined by conventional in-vitro or in-vivo methods. A suitable method is described, for example, by J. Hauptmann et al. in Thrombosis and Haemostasis 1990, 63, 220-223.
The inhibition of factor Xa can be measured, for example by the method of T. Hara et al. in Thromb. Haemostas. 1994, 71, 314-319.

The target of the next data set is TF/FVIIa (Homo sapiens, UniProt P08709). Description: TF/FVIIa inhibition (TF/FVIIa-IC50). The class given is biochemical. The source says:
The inhibition of factor VIIa by the compounds according to the invention and the measurement of the anticoagulant and antithrombotic activity can be determined by conventional in-vitro or in-vivo methods. A conventional method for the measurement of the inhibition of factor VIIa is described, for example, by H. F. Ronning et al. in Thrombosis Research 1996, 84, 73-81.

Chain of TF/FVIIa (P08709 213-466 limits assumed): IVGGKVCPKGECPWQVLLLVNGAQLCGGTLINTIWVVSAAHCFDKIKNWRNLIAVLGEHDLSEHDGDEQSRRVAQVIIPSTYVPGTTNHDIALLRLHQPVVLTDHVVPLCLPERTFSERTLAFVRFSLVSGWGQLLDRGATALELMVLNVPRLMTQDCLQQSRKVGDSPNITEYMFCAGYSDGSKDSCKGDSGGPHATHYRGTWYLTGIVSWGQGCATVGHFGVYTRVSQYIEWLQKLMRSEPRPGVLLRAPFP
Chain of TF/FVIIa (P08709 61-212 limits assumed): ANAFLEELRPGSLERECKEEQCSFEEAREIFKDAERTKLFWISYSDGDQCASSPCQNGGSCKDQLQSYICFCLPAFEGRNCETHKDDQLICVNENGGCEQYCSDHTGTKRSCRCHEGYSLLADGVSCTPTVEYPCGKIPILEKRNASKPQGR
Chain of TF/FVIIa (P13726 33-295 partner): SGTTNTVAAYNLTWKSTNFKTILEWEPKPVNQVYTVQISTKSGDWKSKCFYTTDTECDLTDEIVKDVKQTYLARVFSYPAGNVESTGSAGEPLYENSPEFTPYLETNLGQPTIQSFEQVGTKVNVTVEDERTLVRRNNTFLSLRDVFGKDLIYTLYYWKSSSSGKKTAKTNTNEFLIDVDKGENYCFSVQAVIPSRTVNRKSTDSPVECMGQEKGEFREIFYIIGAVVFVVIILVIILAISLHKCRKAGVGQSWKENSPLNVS
Chain of FXa (P00742 235-488 limits assumed): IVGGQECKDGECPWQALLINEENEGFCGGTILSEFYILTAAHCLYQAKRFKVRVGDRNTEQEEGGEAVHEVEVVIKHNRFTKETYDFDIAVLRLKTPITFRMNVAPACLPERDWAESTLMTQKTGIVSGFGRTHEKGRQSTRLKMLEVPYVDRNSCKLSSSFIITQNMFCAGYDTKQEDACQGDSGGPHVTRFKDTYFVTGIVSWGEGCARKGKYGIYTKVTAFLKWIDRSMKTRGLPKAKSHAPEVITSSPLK
Chain of FXa (P00742 41-179 limits assumed): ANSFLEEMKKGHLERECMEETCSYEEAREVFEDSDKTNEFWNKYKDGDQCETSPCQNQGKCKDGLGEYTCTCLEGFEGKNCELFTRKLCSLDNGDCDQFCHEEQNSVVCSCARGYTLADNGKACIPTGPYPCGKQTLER

The term melting point denotes the temperature, or range, at which the solid turns liquid. One may read the IC50 as the concentration that inhibits the measured activity by half. The low end stands for greater potency, the high end for weaker potency. `CCCN(NC(=O)c1ccc(Cl)s1)C(=O)Nc1ccc(N2CCOCC2=O)cc1` [Compound A1, 1-(5-chlorothien-2-ylcarbonyl)-4-[4-(3-oxomorpholin-4-yl)phenyl]-2-propylsemicarbazide]: the melting point is 101 to 102 °C. At FXa, the midpoint of inhibition, the IC50, lay at 390 nM. Besides, half-maximal inhibition on TF/FVIIa (IC50) was put at 830 nM.

Turning to `C#CCN(NC(=O)c1ccc(Cl)s1)C(=O)Nc1ccc(N2CCOCC2=O)c(C)c1` [Compound A2, 1-(5-chlorothien-2-ylcarbonyl)4-[3-methyl-4-(3-oxomorpholin4-yl)-phenyl]-2-(prop-2-ynyl)semicarbazide], the figures for the IC50 against FXa and against TF/FVIIa were 570 nM and 1000 nM, respectively.

As to `Cc1cc(NC(=O)N(Cc2ccccc2)NC(=O)c2sccc2Cl)ccc1N1CCOCC1=O` [Compound A3, 1-(3-chlorothien-2-ylcarbonyl)4-[3-methyl4-(3-oxomorpholin4-yl)-phenyl]-2-benzylsemicarbazide], the IC50 at FXa turned out to be 87 nM; against TF/FVIIa it was 180 nM.

(Values after patent US7763611B2, “Aroylsemicarbazide derivatives against thromboembolic diseases” (Merck Patent GmbH, priority 2003, dated 2010).)
